Experimental data reported in PubChem BioAssay AID248 (DTP/NCI, 2004).
Inconclusive results and toxic doses are left out. No stated cut-off is given here; in the data, active means T/C of 150% or more; inactive means T/C below 125%.

Tested on: L1210 leukemia ip in BDF1 mice, survival T/C
Assay: NCI In Vivo Anticancer Drug Screen. Data for tumor model L1210 Leukemia (intraperitoneal) in B6D2F1 (BDF1) mice
Conditions: endpoint: mean survival time, higher = longer survival
In short: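 Value reflects the ratio of survival in compound-treated mice to survival in vehicle-treated controls, with both groups carrying the same transplanted tumor.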

[1] = dose: 200.0 mg/kg/injection, schedule: Q01DX001 (ip), vehicle: saline
[2] = dose: 100.0 mg/kg/injection, schedule: Q04DX003 (ip), vehicle: saline with Tween-80
[3] = dose: 200.0 mg/kg/injection, schedule: Q01DX009 (ip), vehicle: saline with Tween-80
[4] = dose: 50.0 mg/kg/injection, schedule: Q01DX009 (ip), vehicle: saline with Tween-80
[5] = dose: 75.0 mg/kg/injection, schedule: Q01DX009 (ip), vehicle: saline with Tween-80
[6] = dose: 25.0 mg/kg/injection, schedule: Q01DX009 (ip), vehicle: saline
[7] = dose: 50.0 mg/kg/injection, schedule: Q01DX009 (ip), vehicle: saline
[8] = dose: 100.0 mg/kg/injection, schedule: Q01DX001 (ip), vehicle: saline
[9] = dose: 30.0 mg/kg/injection, schedule: Q01DX Z (ip), vehicle: saline
[10] = dose: 100.0 mg/kg/injection, schedule: Q01DX Z (ip), vehicle: saline
[11] = dose: 100.0 mg/kg/injection, schedule: Q04DX003 (ip), vehicle: other
[12] = dose: 100.0 mg/kg/injection, schedule: Q01DX009 (ip), vehicle: Klucel (hydroxypropylcellulose) (HPC)
[13] = dose: 200.0 mg/kg/injection, schedule: Q01DX009 (ip), vehicle: Klucel (hydroxypropylcellulose) (HPC)
[14] = dose: 400.0 mg/kg/injection, schedule: Q01DX009 (ip), vehicle: Klucel (hydroxypropylcellulose) (HPC)
[15] = dose: 100.0 mg/kg/injection, schedule: Q01DX001 (ip), vehicle: saline with Tween-80
[16] = dose: 200.0 mg/kg/injection, schedule: Q01DX001 (ip), vehicle: saline with Tween-80
[17] = dose: 400.0 mg/kg/injection, schedule: Q01DX001 (ip), vehicle: saline with Tween-80

Measured: T/C

ClCCN(CCCl)CCCNc1cc(-c2ccc(Cl)cc2)nc2cc(Cl)ccc12
inactive: dose: 5.0 mg/kg/injection, schedule: Q01DX001 (ip), vehicle: saline 101 % of control | dose: 10.0 mg/kg/injection, schedule: Q01DX001 (ip), vehicle: saline 101 % of control | dose: 20.0 mg/kg/injection, schedule: Q01DX001 (ip), vehicle: saline 109 % of control | dose: 40.0 mg/kg/injection, schedule: Q01DX001 (ip), vehicle: saline 104 % of control | dose: 80.0 mg/kg/injection, schedule: Q01DX001 (ip), vehicle: saline 92 % of control | [1] 106 % of control

C=CCn1c(=S)[nH]c2ccccc2c1=O
inactive: [2] 93 % of control | [3] 91 % of control | dose: 200.0 mg/kg/injection, schedule: Q04DX003 (ip), vehicle: saline with Tween-80 94 % of control | dose: 400.0 mg/kg/injection, schedule: Q01DX009 (ip), vehicle: saline with Tween-80 89 % of control | dose: 400.0 mg/kg/injection, schedule: Q04DX003 (ip), vehicle: saline with Tween-80 96 % of control

CNC(C)(C)C(SS)c1ccc(Cl)cc1 (stereo unspecified)
inactive: dose: 25.0 mg/kg/injection, schedule: Q01DX009 (ip), vehicle: saline with Tween-80 92 % of control | dose: 25.0 mg/kg/injection, schedule: Q04DX003 (ip), vehicle: saline with Tween-80 102 % of control | [4] 98 % of control | dose: 50.0 mg/kg/injection, schedule: Q04DX003 (ip), vehicle: saline with Tween-80 96 % of control | [5] 94 % of control | [2] 98 % of control

NNC(=O)CCCc1ccccc1
inactive: [6] 97 % of control | [7] 103 % of control | [8] 105 % of control

CC(C)CC(N)C(=O)NCCCl (stereo unspecified)
inactive: [9] 88 % of control | [10] 102 % of control | dose: 300.0 mg/kg/injection, schedule: Q01DX Z (ip), vehicle: saline 88 % of control

CCCCN(CCCC)N=Nc1c[nH]c(=O)[nH]c1=O
inactive: dose: 8.0 mg/kg/injection, schedule: Q01DX Z (ip), vehicle: carboxymethylcellulose (CMC) 114 % of control | dose: 16.0 mg/kg/injection, schedule: Q01DX Z (ip), vehicle: carboxymethylcellulose (CMC) 109 % of control

CC(=O)OCC(COC(C)=O)OC(C)=O
inactive: dose: 100.0 mg/kg/injection, schedule: Q04DX002 (ip), vehicle: other 98 % of control | dose: 200.0 mg/kg/injection, schedule: Q04DX002 (ip), vehicle: other 98 % of control | dose: 400.0 mg/kg/injection, schedule: Q04DX002 (ip), vehicle: other 103 % of control

COC(C(=O)O)c1cccs1 (stereo unspecified)
inactive: [4] 91 % of control | dose: 100.0 mg/kg/injection, schedule: Q01DX009 (ip), vehicle: saline with Tween-80 86 % of control | [3] 100 % of control

C[N+]([O-])(CCC#N)CC(=O)O (stereo unspecified)
inactive: [8] 97 % of control | [1] 101 % of control

CCC(=O)c1cc(O)ccc1O
inactive: [11] 93 % of control | dose: 200.0 mg/kg/injection, schedule: Q04DX003 (ip), vehicle: other 98 % of control

O=C(Nc1ccc([N+](=O)[O-])cc1)Nc1ccc([N+](=O)[O-])c(C(F)(F)F)c1
inactive: dose: 12.5 mg/kg/injection, schedule: Q01DX009 (ip), vehicle: saline 87 % of control | dose: 15.0 mg/kg/injection, schedule: Q01DX015 (ip), vehicle: saline 97 % of control | [6] 90 % of control | dose: 25.0 mg/kg/injection, schedule: Q04DX003 (ip), vehicle: acetone 86 % of control | dose: 30.0 mg/kg/injection, schedule: Q01DX015 (ip), vehicle: saline 94 % of control | [7] 90 % of control | dose: 50.0 mg/kg/injection, schedule: Q04DX003 (ip), vehicle: acetone 88 % of control | dose: 60.0 mg/kg/injection, schedule: Q01DX015 (ip), vehicle: saline 92 % of control | [5] 102 % of control | [8] 94 % of control | dose: 115.0 mg/kg/injection, schedule: Q01DX009 (ip), vehicle: saline with Tween-80 100 % of control | dose: 120.0 mg/kg/injection, schedule: Q01DX015 (ip), vehicle: saline 90 % of control

c1ccc(-c2oc(-c3ccccc3)c3c2CCCC3)cc1
inactive: [12] 100 % of control | [13] 98 % of control | [14] 98 % of control

Cc1ccc([N+](=O)[O-])cc1NC(=O)Nc1ccc(CCO)cc1
inactive: [12] 90 % of control | [13] 93 % of control

COC(=O)C(Cc1[nH]c(N=Nc2ccc(Br)cc2)nc1N=Nc1ccc(Br)cc1)NC(=O)c1ccccc1 (stereo unspecified)
inactive: [15] 86 % of control | [16] 93 % of control | [17] 90 % of control

O=C(O)/C=C/c1c2ccc(=O)c(O)c-2oc2c(O)c(O)ccc12
inactive: dose: 10.0 mg/kg/injection, schedule: Q04DX003 (ip), vehicle: other 94 % of control | dose: 20.0 mg/kg/injection, schedule: Q04DX003 (ip), vehicle: other 98 % of control | dose: 40.0 mg/kg/injection, schedule: Q04DX003 (ip), vehicle: other 88 % of control | dose: 50.0 mg/kg/injection, schedule: Q04DX003 (ip), vehicle: other 106 % of control | dose: 80.0 mg/kg/injection, schedule: Q04DX003 (ip), vehicle: other 89 % of control | [11] 107 % of control

CN(C)[Se](=O)Cl (stereo unspecified)
inactive: dose: 12.5 mg/kg/injection, schedule: Q04DX002 (ip), vehicle: saline with Tween-80 100 % of control | dose: 25.0 mg/kg/injection, schedule: Q04DX002 (ip), vehicle: saline with Tween-80 110 % of control

C=C1CC2(CCC3(CC2)OCCO3)OC1=O
inactive: [15] 95 % of control | [16] 95 % of control | [17] 98 % of control

CCCCOC(=Nc1ccccc1)N(c1ccccc1)c1ccccc1
inactive: dose: 222.0 mg/kg/injection, schedule: Q01DX Z (ip), vehicle: methylcellulose (MC) 88 % of control | dose: 333.0 mg/kg/injection, schedule: Q01DX Z (ip), vehicle: methylcellulose (MC) 94 % of control | dose: 500.0 mg/kg/injection, schedule: Q01DX Z (ip), vehicle: methylcellulose (MC) 98 % of control

S=C1NC(c2ccc(Cl)cc2)N2C(=S)NC(c3ccc(Cl)cc3)N12 (stereo unspecified)
inactive: dose: 100.0 mg/kg/injection, schedule: Q01DX009 (ip), vehicle: gum acacia 98 % of control | dose: 100.0 mg/kg/injection, schedule: Q04DX003 (ip), vehicle: gum acacia 104 % of control | dose: 200.0 mg/kg/injection, schedule: Q01DX009 (ip), vehicle: gum acacia 93 % of control | dose: 200.0 mg/kg/injection, schedule: Q04DX003 (ip), vehicle: gum acacia 101 % of control | dose: 400.0 mg/kg/injection, schedule: Q04DX003 (ip), vehicle: gum acacia 98 % of control

O=C(Nc1cccc(C(F)(F)F)c1)N(C1CCCCC1)C1CCCCC1
inactive: [12] 92 % of control | [13] 87 % of control | [14] 87 % of control

NC(N)=NCCCC(N)C(=O)NCCCCCCNC(=O)C(N)CCCN=C(N)N (stereo unspecified)
inactive: dose: 10.0 mg/kg/injection, schedule: Q01DX Z (ip), vehicle: saline 97 % of control | [9] 108 % of control | [10] 90 % of control

CC(C)(C)/C(=N\[N+](C)(C)C)c1ccccc1
inactive: dose: 100.0 mg/kg/injection, schedule: Q04DX003 (ip), vehicle: saline 98 % of control
